According to patent US7160913B2, “Methods and kit for treating Parkinson's disease” (Thomas Jefferson University, priority 2002, dated 2007):

How the values were obtained:
parkinsonian monkey [1] = experiment: Severity of levodopa-induced dystonias in a parkinsonian monkey; type: in vivo; settings: 8 mg/kg D-cycloserine with 40 mg/kg levodopa plus 15 mg benserazide vs L-Dopa alone; at least over 120 minutes; three repetitions
Protocol: Under these conditions, 8 mg/kg D-cycloserine was administered to the monkeys with 40 mg/kg levodopa plus 15 mg benserazide. The severity of the dystonia was rated by observers blind to the treatment condition. […] Three independent repetitions of the study were performed.

parkinsonian monkey [2] = experiment: Severity of levodopa-induced choreiform dyskinesias in a parkinsonian monkey; type: in vivo
Protocol: A parkinsonian monkey was primed for choreiform dyskinesia following chronic administration of levodopa plus the peripheral dopa decarboxylase inhibitor benserazide. […] Severity of the dyskinesias was rated by observers blind to the treatment condition. Three independent repetitions of the study were performed.

parkinsonian monkeys [3] = experiment: Duration of levodopa anti-Parkinson effect ("on" time) in parkinsonian monkeys; type: in vivo, monkey; settings: 8 mg/kg D-cycloserine with 40 mg/kg levodopa plus 15 mg benserazide, compared to levodopa plus benserazide alone; two parkinsonian monkeys; blinded raters
Protocol: Eight mg/kg D-cycloserine was administered to two parkinsonian monkeys with an established therapeutic response to levodopa, together with 40 mg/kg levodopa plus the 15 mg of the peripheral dopa decarboxylase inhibitor benserazide. Symptomatic benefit was assessed by raters blind to treatment condition.

parkinsonian monkeys [4] = experiment: Peak-dose levodopa anti-parkinsonian efficacy in parkinsonian monkeys; type: in vivo, monkey; settings: 8 mg/kg D-cycloserine with 40 mg/kg levodopa plus 15 mg benserazide; assessed 30 or 60 minutes after levodopa; two parkinsonian monkeys
Protocol: In two parkinsonian monkeys with an established therapeutic response to levodopa, peak-dose levodopa efficacy was assessed by raters blind to treatment condition. Eight mg/kg D-cycloserine was administered to the monkeys with 40 mg/kg levodopa plus 15 mg benserazide.

N[C@@H]1CONC1=O [D-cycloserine]
severity of levodopa-induced dystonias (parkinsonian monkey [1]): significantly decreased the severity of the dystonias | severity of levodopa-induced choreiform dyskinesias (parkinsonian monkey [2]; 8 mg/kg D-cycloserine with 40 mg/kg levodopa plus 15 mg benserazide vs L-Dopa alone, at least over 120 minutes, monkey primed by chronic levodopa/benserazide, three repetitions): significantly decreased the severity of these dyskinesias | enhancement of levodopa "on" time, or duration of symptomatic relief by levodopa (parkinsonian monkeys [3]): 41% | effect on therapeutic (anti-parkinsonian) efficacy of levodopa, peak-dose (parkinsonian monkeys [4]): did not interfere with or reduce the therapeutic efficacy of levodopa

N[C@@H](Cc1ccc(O)c(O)c1)C(=O)O [levodopa]
choreiform dyskinesias caused by levodopa challenge (parkinsonian monkey [2]; 40 mg/kg challenge dose of levodopa, parkinsonian monkey primed by chronic levodopa plus benserazide): caused significant choreiform dyskinesias
